Data set [1] is described as follows: Slurry experiments of monohydrate (A) in various solvents. In kind it is physicochemical. The source says: The residues were filtered off and dried at room temperature and ambient humidity. Reproducible preparation was not possible for all solid state forms.
Data set [2] in a line: Moisture sorption: storage at various humidities, thermogravimetric analysis. It is filed as physicochemical. The conditions noted are these: for Mass loss after storage / Modification after storage: 25° C., 12 months. The method, then: TGA thermograms were recorded using thermobalances (model TGA7 and Pyris 1) from Perkin-Elmer.
The measurements were performed with a heating rate of 10 Kmin^−1 using open platinum pans. Flow gas was nitrogen. There was no sample preparation.
Their moisture content was then determined by thermogravimetric analysis.

A short description of data set [3]: Stability in brown glass bottle. In kind it is physicochemical. As to conditions: for Assay calc. on dried substance / Ethanol / Material and colour / Sum of all organic impurities / Water: brown glass bottle.
Data set [4] is described as follows: Storage of solid forms in closed vessels at 25° C. and 50° C. As to conditions: for Modification after storage in closed vessels: 12 months, humidity not set. It is filed as physicochemical.
A short description of data set [5]: Crystalline form (XRPD) in coated tablet during storage. As to conditions: see Table 5. In kind it is physicochemical. The method, then:
X-Ray diffraction patterns were recorded at room temperature using XRD-diffractometers X'Pert PRO (PANalytical) and STOE STADI-P (radiation Cu K alpha 1, wavelength 1.5406 Å). There was no sample preparation. All X-Ray reflections are quoted as °2θ (theta) values (peak maxima) with a resolution of ±0.2°.
Tablets with compound III were manufactured according to the method described above and an initial XRPD was recorded.

A further data set in a line: Bioavailability. The conditions noted are these: stated as result of better solubility than the free base.
Data set [6] is described as follows: Solubility in water compared with free base. In kind it is physicochemical. The conditions noted are these: compared with the free base.
A short description of data set [7]: Hygroscopicity and chemical stability of the di-hydrochloride on standing in air. It is filed as physicochemical.

As for `COCc1c(-c2cc3cc(C)cc(OC)c3s2)c2c(N)ncnn2c1CN1CCNC(=O)C1.Cl.O` [Compound (III), 4-{[4-amino-6-(methoxymethyl)-5-(7-methoxy-5-methyl-1-benzothiophen-2-yl)pyrrolo[2,1-f][1,2,4]triazin-7-yl]methyl}piperazin-2-one hydrochloride hydrate], the Modification residue entry is recorded as “Monohydrate (A)” in data set [1] (slurry in 1,4-Dioxane, 25 ° C., stirring time 1 week); “Monohydrate (A)” in data set [1] (slurry in Acetonitrile/water (1:1), 25 ° C., stirring time 1 week); “Monohydrate (A)” in data set [1] (slurry in Ethanol, 25 ° C., stirring time 4 weeks); “Monohydrate (A)” in data set [1] (slurry in Ethanol/water (1:1), 25 ° C., stirring time 1 week); “Monohydrate (A)” in data set [1] (slurry in Isopropanol, 0 ° C., stirring time 1 week); “Monohydrate (A)” in data set [1] (slurry in Isopropanol, 25 ° C., stirring time 4 weeks). For the same compound, the Modification residue result is listed as “¾-Hydrate (D)” in data set [1] (slurry in Methanol, 0 ° C., stirring time 2 weeks); “Dihydrate (B)” in data set [1] (slurry in Methanol, 0 ° C., stirring time 5 weeks); “Monohydrate (A)” in data set [1] (slurry in Methanol, 25 ° C., stirring time 1 week); “Monohydrate (A)” in data set [1] (slurry in Tetrahydrofurane/water (1:1), 25 ° C., stirring time 4 weeks); “Monohydrate (A)” in data set [1] (slurry in Toluene, 25 ° C., stirring time 4 weeks). Moreover, the “Mass loss after storage” value in data set [2] (15% r. h.), in data set [2] (85% r. h.) and in data set [2] (97% r. h.) was 3.7% throughout. The Modification after storage entry in data set [2] (15% r. h.), in data set [2] (85% r. h.) and in data set [2] (97% r. h.) was “Monohydrate” each time. Also, in data set [2] (conclusion from moisture sorption tests, 12 month at 15%, 85% and 97% r.h.), the Hygroscopicity entry was “not hygroscopic”. In addition, the uptake of water entry in data set [2] (stored for 12 month at 15% r.h., 85% r.h and 97% r.h.) is listed as “no uptake of water”. Moreover, the “Stability during storage over a long period of time” value in data set [3] is reported as “very stable during storage”. The “Assay calc. on dried substance” value was 99.8% in data set [3] (25° C./60% r.h., 3 months); 100.0% in data set [3] (25° C./60% r.h., 6 months); 100.0% in data set [3] (25° C./60% r.h., 9 months); 98.1% in data set [3] (25° C./60% r.h., 12 months); 100.4% in data set [3] (25° C./60% r.h., 18 months); 98.8% in data set [3] (25° C./60% r.h., 24 months). For the same compound, the “Assay calc. on dried substance” value is 98.4% in data set [3] (40° C./75% r.h., 3 months); 99.7% in data set [3] (40° C./75% r.h., 6 months); 100.3% in data set [3] (initial). Besides, the Ethanol in data set [3] (25° C./60% r.h., 3 months) amounted to 0.460%; in data set [3] (25° C./60% r.h., 6 months), 0.467%; in data set [3] (25° C./60% r.h., 9 months) it was 0.444%; in data set [3] (25° C./60% r.h., 12 months), 0.441%; in data set [3] (25° C./60% r.h., 18 months), 0.434%; in data set [3] (25° C./60% r.h., 24 months) it was 0.415%. In addition, the Ethanol in data set [3] (40° C./75% r.h., 3 months) worked out at 0.406%; in data set [3] (40° C./75% r.h., 6 months), 0.435%; in data set [3] (initial), 0.533%. In addition, the Material and colour result in data set [3] (25° C./60% r.h., 3 months) is listed as “slightly grey-tinged solid”; in data set [3] (25° C./60% r.h., 6 months), “slightly grey-tinged solid”; in data set [3] (25° C./60% r.h., 9 months), “slightly grey-tinged solid”; in data set [3] (25° C./60% r.h., 12 months), “slightly grey-tinged solid”; in data set [3] (25° C./60% r.h., 18 months) it was “slightly grey-tinged solid”; in data set [3] (25° C./60% r.h., 24 months) it was “slightly grey-tinged solid”. For the same compound, the Material and colour entry is “slightly grey-tinged solid” in data set [3] (40° C./75% r.h., 3 months); “slightly grey-tinged solid” in data set [3] (40° C./75% r.h., 6 months); “slightly grey-tinged solid” in data set [3] (initial). Also, the “Sum of all organic impurities” value in data set [3] (25° C./60% r.h., 3 months) came to 1.08%; in data set [3] (25° C./60% r.h., 6 months), 1.05%; in data set [3] (25° C./60% r.h., 9 months), 1.14%; in data set [3] (25° C./60% r.h., 12 months) it was 1.22%; in data set [3] (25° C./60% r.h., 18 months), 1.17%; in data set [3] (25° C./60% r.h., 24 months), 1.14%. Besides, the “Sum of all organic impurities” value in data set [3] (40° C./75% r.h., 3 months) is reported as 1.17%; in data set [3] (40° C./75% r.h., 6 months) it was 1.00%; in data set [3] (initial) it was 1.03%. The Water came out at 3.9% in data set [3] (25° C./60% r.h., 3 months); 3.5% in data set [3] (25° C./60% r.h., 6 months); 3.5% in data set [3] (25° C./60% r.h., 9 months); 3.6% in data set [3] (25° C./60% r.h., 12 months); 3.6% in data set [3] (25° C./60% r.h., 18 months); 3.5% in data set [3] (25° C./60% r.h., 24 months). Further, the Water in data set [3] (40° C./75% r.h., 3 months) is on record as 3.6%; in data set [3] (40° C./75% r.h., 6 months), 3.4%; in data set [3] (initial), 3.5%. In addition, the chemical stability result in data set [3] (during storage for several years) is given as “chemically stable”. In addition, the “Modification after storage in closed vessels” value in data set [4] (25° C.) and in data set [4] (50° C.) was “Monohydrate” in each case. Also, the physical stability entry in data set [4] (Storage at 25 and 50° C. for 12 month) is reported as “no changes in stability”. Further, in data set [5], the “Stability of the form in the tablet matrix” value was “stable in the tablet matrix and does not change during storage”. Also, the bioavailability result in the data set “Bioavailability” is listed as “enhanced bioavailability”. Besides, in data set [6], the solubility in water result is “significantly better solubility in water”.
As for `COCc1c(-c2cc3cc(C)cc(OC)c3s2)c2c(N)ncnn2c1CN1CCNC(=O)C1.Cl.O.O` [Dihydrate (B)], in data set [4] (closed vessel, within two weeks), the “Change of solid form during storage in a closed vessel” value was “transformed into the monohydrate”. In addition, in data set [4] (stored at room temperature, in the course of two weeks), the “Change of solid form of isolated residue” value is on record as “transformed into the Monohydrate”.
Consider `COCc1c(-c2cc3cc(C)cc(OC)c3s2)c2c(N)ncnn2c1CN1CCNC(=O)C1.Cl.O.O.O` [Trihydrate], for which, in data set [2] (85% r. h.), the “Mass loss after storage” value came out at 3.3% and the Modification after storage entry is “Monohydrate*”. Also, in data set [2] (97% r. h.), the “Mass loss after storage” value amounted to 6.0% and the Modification after storage entry is listed as “Monohydrate*”. Further, the “Change of solid form during storage at high humidity” value in data set [2] (storage at high humidity) was “changed into the monohydrate”. Besides, the “Modification after storage in closed vessels” value in data set [4] (25° C.) is “Trihydrate”.
Turning to `COCc1c(-c2cc3cc(C)cc(OC)c3s2)c2c(N)ncnn2c1CN1CCNC(=O)C1.Cl.Cl` [di-hydrochloride, di-hydrochloride of 4-{[4-Amino-6-(methoxymethyl)-5-(7-methoxy-5-methyl-1-benzothiophen-2-yl)pyrrolo[2,1-f][1,2,4]triazin-7-yl]methyl}piperazin-2-one], the Hygroscopicity entry in data set [7] is “very hydroscopic”. Besides, the chemical stability result in data set [7] (on standing in the air) is “loses HCl on standing in the air”.

(Values after patent US20220098201A1, “THE MONOHYDRATE OF ROGARATINIB HYDROCHLORIDE AND SOLID STATES THEREOF” (Bayer Aktiengesellschaft, priority 2019, published 2022).)
